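The compound was tested at five concentrations on cells cultured in 96-well plates, with a 48-hour exposure period. Abbreviation: GI50, concentration required for 50% inhibition of growth.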 Calls of active or inactive are those of the source. No stated cut-off is given here; in the data, active = GI50 up to about 1.1 µM and inactive = higher.
Assays:
Experiment in all cases: inhibition of tumour cell growth, NCI panel, 48 h
[1] = test system: DU-145
[2] = test system: SNB-19
[3] = test system: OVCAR-5
[4] = test system: SF-539
[5] = test system: OVCAR-4
[6] = test system: HOP-92
[7] = test system: TK-10
[8] = test system: CCRF-CEM
[9] = test system: SK-OV-3
[10] = test system: UACC-62
[11] = test system: NCI-H226
[12] = test system: OVCAR-8
[13] = test system: MOLT-4
[14] = test system: K562
[15] = test system: ACHN
[16] = test system: MDA-MB-435
[17] = test system: SK-MEL-28
[18] = test system: HCT-116
[19] = test system: MDA-N
[20] = test system: HOP-62
[21] = test system: UACC-257
[22] = test system: BT-549
[23] = test system: 786-0
[24] = test system: A498
[25] = test system: MCF7
[26] = test system: IGROV-1
[27] = test system: SK-MEL-2
[28] = test system: CAKI-1
[29] = test system: NCI-H460
[30] = test system: SF-268
[31] = test system: UO-31
[32] = test system: HT-29
[33] = test system: PC-3
[34] = test system: M14
[35] = test system: EKVX
[36] = test system: SW-620
[37] = test system: HL-60
[38] = test system: KM12
[39] = test system: NCI/ADR-RES
[40] = test system: LOX IMVI
[41] = test system: SNB-75
[42] = test system: Malme-3M
[43] = test system: HCT-15
[44] = test system: SN12C
[45] = test system: COLO 205
[46] = test system: HCC 2998
[47] = test system: Hs-578T
[48] = test system: SF-295
[49] = test system: OVCAR-3
[50] = test system: MDA-MB-231
[51] = test system: SR
[52] = test system: RXF 393
[53] = test system: SK-MEL-5
[54] = test system: A549
[55] = test system: NCI-H522
[56] = test system: NCI-H23
[57] = test system: U-251
[58] = test system: T47D
[59] = test system: RPMI-8226

Measured: GI50

Cc1cc(NS(=O)(=O)c2ccc(NO)cc2)no1
32.4 µM: [43]
inactive: [1] > 100 µM | [2] > 100 µM | [3] > 100 µM | [4] 35.1 µM | [5] 67.3 µM | [6] > 100 µM | [7] > 100 µM | [8] 8.65 µM | [9] > 100 µM | [10] 56.6 µM | [11] > 100 µM | [12] 41.1 µM | [13] 43 µM | [14] 14.7 µM | [15] > 100 µM | [16] 19.5 µM | [17] > 100 µM | [18] 28.5 µM | [19] 20.7 µM | [20] > 100 µM | [21] > 100 µM | [22] > 100 µM | [23] 33 µM | [24] > 100 µM | [25] 22 µM | [26] > 100 µM | [27] > 100 µM | [28] > 100 µM | [29] > 100 µM | [30] > 100 µM | [31] > 100 µM | [32] 41.3 µM | [33] > 100 µM | [34] 70.6 µM | [35] > 100 µM | [36] 29.2 µM | [37] > 100 µM | [38] 63.4 µM | [39] 39.5 µM | [40] 17.9 µM | [41] 43.7 µM | [42] > 100 µM | [44] 19.5 µM | [45] > 100 µM | [46] > 100 µM | [47] > 100 µM | [48] > 10 µM | [49] > 100 µM | [50] 34.7 µM | [51] 23.4 µM | [52] > 100 µM | [53] > 100 µM | [54] > 100 µM

Cc1ccc(-n2cc(-c3ccc(Cl)cc3)c3c(=N)n(N)cnc32)cc1
15.6 µM: [43]
inactive: [1] 17.5 µM | [2] 11.8 µM | [3] 14.7 µM | [4] 13.4 µM | [5] 10.5 µM | [6] 9.95 µM | [7] 15.3 µM | [8] 11.3 µM | [9] 17.4 µM | [10] 13.2 µM | [11] 21 µM | [12] 14.8 µM | [14] 6.46 µM | [15] 16.2 µM | [16] 11.1 µM | [17] 13.8 µM | [18] 7.8 µM | [19] 11.5 µM | [20] 14.2 µM | [21] 9.93 µM | [22] 16.9 µM | [23] 11.9 µM | [24] 15.9 µM | [25] 11 µM | [26] 12 µM | [27] 13.6 µM | [28] 18.5 µM | [29] 10.3 µM | [30] 12.7 µM | [31] 11.7 µM | [32] 8.24 µM | [33] 6.41 µM | [34] 5.75 µM | [35] 16.4 µM | [36] 12.4 µM | [55] 14.5 µM | [37] 7.83 µM | [56] 16.1 µM | [39] 13.1 µM | [57] 10.5 µM | [40] 14.7 µM | [41] 12.6 µM | [42] 13.2 µM | [44] 16 µM | [45] 8.2 µM | [46] 6.11 µM | [47] 3.71 µM | [48] 15.4 µM | [49] 13.5 µM | [50] 12.6 µM | [52] 4.69 µM | [53] 7.43 µM | [54] 15.1 µM

CCOC(O)(NC(=O)C(C(F)(F)F)C(F)(F)F)C(F)(F)F (stereo not drawn)
> 100 µM: [43]
inactive: [2] > 100 µM | [3] > 100 µM | [4] > 100 µM | [7] > 100 µM | [8] > 100 µM | [12] > 100 µM | [13] > 100 µM | [14] > 100 µM | [15] > 100 µM | [16] > 100 µM | [17] > 100 µM | [18] > 100 µM | [19] > 100 µM | [58] > 100 µM | [21] > 100 µM | [22] > 100 µM | [23] > 100 µM | [24] > 100 µM | [26] > 100 µM | [27] > 100 µM | [30] > 100 µM | [31] > 100 µM | [32] > 100 µM | [33] > 100 µM | [34] > 100 µM | [35] > 100 µM | [36] > 100 µM | [37] > 100 µM | [56] > 100 µM | [39] > 100 µM | [57] > 100 µM | [40] > 100 µM | [41] > 100 µM | [44] > 100 µM | [45] > 100 µM | [46] > 100 µM | [59] > 100 µM | [47] > 100 µM | [51] > 100 µM | [52] > 100 µM | [53] > 100 µM | [54] > 100 µM

CCOC(=O)c1cc(NC(=O)c2ccccc2)c(=O)n2c(cc3c(Cl)cccc32)c1O
> 100 µM: [43]
inactive: [1] > 100 µM | [2] > 100 µM | [3] > 100 µM | [4] > 100 µM | [5] > 100 µM | [6] > 100 µM | [7] > 100 µM | [8] 95.5 µM | [9] > 100 µM | [10] > 100 µM | [11] > 100 µM | [12] > 100 µM | [13] > 100 µM | [14] > 100 µM | [15] > 100 µM | [16] > 100 µM | [17] > 100 µM | [18] > 100 µM | [19] > 100 µM | [20] > 100 µM | [21] > 100 µM | [22] > 100 µM | [23] > 100 µM | [24] > 100 µM | [25] > 100 µM | [26] > 100 µM | [27] > 100 µM | [28] > 100 µM | [29] > 100 µM | [30] > 100 µM | [31] > 100 µM | [32] > 100 µM | [33] > 100 µM | [34] > 100 µM | [35] > 100 µM | [36] > 100 µM | [55] > 100 µM | [37] > 100 µM | [38] > 100 µM | [56] > 100 µM | [39] > 100 µM | [57] > 100 µM | [40] > 100 µM | [42] > 100 µM | [44] > 100 µM | [45] > 100 µM | [46] > 100 µM | [59] 80.4 µM | [47] > 100 µM | [48] 57.4 µM | [49] > 100 µM | [50] > 100 µM | [51] > 100 µM | [52] > 100 µM | [53] > 100 µM | [54] > 100 µM

Cc1sc2nc(-c3cccc([N+](=O)[O-])c3)c(/C=N/N=C(N)N)n2c1C
1.67 µM: [43]
inactive: [1] 1.86 µM | [2] 1.76 µM | [3] 1.65 µM | [4] 1.95 µM | [6] 1.46 µM | [7] 1.51 µM | [8] 1.74 µM | [9] 1.8 µM | [10] 1.75 µM | [11] 1.82 µM | [12] 1.84 µM | [13] 1.9 µM | [14] 1.69 µM | [15] 1.71 µM | [16] 1.79 µM | [17] 1.67 µM | [19] 1.77 µM | [20] 1.72 µM | [21] 1.67 µM | [22] 1.5 µM | [23] 1.83 µM | [24] 1.55 µM | [25] 1.84 µM | [26] 1.32 µM | [27] 1.71 µM | [28] 1.82 µM | [29] 1.81 µM | [30] 1.93 µM | [31] 1.75 µM | [32] 1.62 µM | [33] 1.63 µM | [34] 1.6 µM | [35] 1.67 µM | [36] 1.75 µM | [55] 1.77 µM | [37] 1.81 µM | [38] 1.71 µM | [56] 1.82 µM | [39] 8.13 µM | [57] 1.7 µM | [40] 1.77 µM | [42] 2.08 µM | [44] 1.92 µM | [45] 1.83 µM | [46] 1.32 µM | [59] 1.96 µM | [47] 1.66 µM | [48] 1.54 µM | [49] 1.82 µM | [50] 1.75 µM | [51] 1.75 µM | [52] 1.66 µM | [53] 1.67 µM | [54] 1.66 µM

Source: ChEMBL document CHEMBL1201862, “PubChem BioAssay data set” (2004)
